Here are results for 19 compounds from US20190127354A1, “2,4,6,7-TETRASUBSTITUTED QUINOLINE COMPOUNDS AS INHIBITORS OF DNA […]” (FUNDACIÓN PARA LA INVESTIGACIÓN MÉDICA APLICADA, priority 2015, published 2019).

One experiment deals with T1, human DNMT1 (Homo sapiens, UniProt P26358).
T1 construct: purchased Reaction Biology Corp. DMT-21-124
Briefly: DNMT1 enzyme activity assay (TR-FRET, EPIgeneous methyltransferase assay). The settings on record: human DNMT1, 15 minutes at 37° C. The class given is biochemical. The protocol: DNMT1 Enzyme Activity Assay
The biochemical assay to measure DNMT1 enzyme activity relies on time-resolved fluorescence energy transfer (TR-FRET) between lumi4-Tb (donor) and d2 (acceptor) using the EPIgeneous methyltransferase assay (CisBio Cat#62SAHPEB). […] TR-FRET signal is inversely proportional to the concentration of SAH, product of DNMT1 enzyme activity, in the sample. The human DNMT1 was obtained from Reaction Biology Corp. (Cat# DMT-21-124).
Enzyme activity assay was carried out in a white 384-well plate in a final volume of 20 μl, as follow: • 4 μl of vehicle or studied compound 2.5× concentrated prepared in assay buffer (50 mM Tris-HCl, 1 mM EDTA, 1 mM DTT, 0.1% Triton X-100, 5% glycerol pH 7.5). Final percentage of DMSO was 0.5%. • 2 μl of 1 nM DNMT1 enzyme diluted in assay buffer.
For each well, fluorescence was measured at 620 nm and 665 nm. A ratio (665 nm/620 nm) was then calculated in order to minimize medium interferences. Positive control was obtained in the presence of the vehicle of the compounds. Calculated IC50 values were determined using GraphPrism using 4-parameters inhibition curve.
For orientation: Time-resolved FRET reads energy transfer from a long-lived donor to a nearby acceptor.

Another experiment deals with T2, human G9a enzyme (Homo sapiens, UniProt Q96KQ7).
T2 construct: purchased BPS Biosciences 51001; host or cells: baculovirus infected Sf9 cells
T2 sequence (Q96KQ7 1-1210): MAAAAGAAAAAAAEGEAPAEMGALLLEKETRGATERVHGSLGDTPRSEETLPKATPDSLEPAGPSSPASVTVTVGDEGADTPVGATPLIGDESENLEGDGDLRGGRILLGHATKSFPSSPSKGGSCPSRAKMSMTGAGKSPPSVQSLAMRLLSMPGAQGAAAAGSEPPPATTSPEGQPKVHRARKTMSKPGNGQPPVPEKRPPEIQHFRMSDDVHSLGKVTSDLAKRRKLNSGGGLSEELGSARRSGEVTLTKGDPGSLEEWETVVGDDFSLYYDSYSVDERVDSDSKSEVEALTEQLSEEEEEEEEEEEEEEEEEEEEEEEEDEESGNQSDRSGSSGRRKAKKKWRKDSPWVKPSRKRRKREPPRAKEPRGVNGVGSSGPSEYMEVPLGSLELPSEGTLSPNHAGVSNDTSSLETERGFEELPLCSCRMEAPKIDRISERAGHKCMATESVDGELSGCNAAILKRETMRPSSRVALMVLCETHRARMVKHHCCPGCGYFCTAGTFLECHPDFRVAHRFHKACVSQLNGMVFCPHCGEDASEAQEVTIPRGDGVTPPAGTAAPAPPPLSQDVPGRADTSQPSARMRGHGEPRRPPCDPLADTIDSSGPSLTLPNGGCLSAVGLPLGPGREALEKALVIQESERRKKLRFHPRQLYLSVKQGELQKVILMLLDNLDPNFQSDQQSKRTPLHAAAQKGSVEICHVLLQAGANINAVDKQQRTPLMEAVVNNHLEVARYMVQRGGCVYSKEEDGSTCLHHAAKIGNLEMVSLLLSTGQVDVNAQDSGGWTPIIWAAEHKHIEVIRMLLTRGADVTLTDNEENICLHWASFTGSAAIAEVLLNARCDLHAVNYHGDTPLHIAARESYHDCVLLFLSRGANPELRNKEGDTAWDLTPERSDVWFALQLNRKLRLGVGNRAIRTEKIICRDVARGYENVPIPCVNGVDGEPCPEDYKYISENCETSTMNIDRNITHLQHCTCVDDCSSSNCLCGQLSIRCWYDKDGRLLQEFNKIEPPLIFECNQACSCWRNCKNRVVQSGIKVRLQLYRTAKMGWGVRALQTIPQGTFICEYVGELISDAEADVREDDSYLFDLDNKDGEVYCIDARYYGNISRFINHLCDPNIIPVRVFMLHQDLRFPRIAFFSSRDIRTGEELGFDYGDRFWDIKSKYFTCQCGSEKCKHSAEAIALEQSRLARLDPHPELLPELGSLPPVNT
Briefly: G9a enzyme activity assay (TR-FRET). The class given is biochemical. The settings on record: 1 hour at room temperature. The protocol:
G9a Enzyme Activity Assay
The biochemical assay to measure G9a enzyme activity relies on time-resolved fluorescence energy transfer (TR-FRET) between europium cryptate (donor) and XL665 (acceptor). […] The human G9a enzyme expressed in a baculovirus infected Sf9 cell expression system was obtained from BPS Biosciences (Cat. #51001). Enzyme activity assay was carried out in a white 384-well plate in a final volume of 20 μl, as follow: • 4 μl of vehicle or studied compound 2.5× concentrated prepared in assay buffer (50 mM Tris-HCl, 10 mM NaCl, 4 mM DTT, 0.01% Tween-20 pH9). Final percentage of DMSO was 0.5%. • 2 μl of 1 nM G9a enzyme diluted in assay buffer. […] Final concentration 150 nM. • Then, add 5 μl of streptavidin XL665 beads. Final concentration of 16 μM. • Read the plate after 1 hour of incubation at room temperature.
For each well, fluorescence was measured at 620 nm and 665 nm. A ratio (665 nm/620 nm) was then calculated in order to minimize medium interferences. Positive control was obtained in the presence of the vehicle of the compounds. Negative control was obtained in the absence of G9a enzyme activity. Calculated IC50 values were determined using GraphPrism using 4-parameters inhibition curve.

In another experiment the test system is CEMO-1. Briefly: Cell proliferation assay (CellTiter 96 Aqueous One Solution). The class given is cell-based. The settings on record: acute lymphocytic leukemia (ALL) cells, 48 hours of treatment. The procedure:
(§1) Cell proliferation was analyzed after 48 hours of in vitro treatment using the CellTiter 96 Aqueous One Solution Cell Proliferation Assay (Promega, Madison, W). This is a colorimetric method for determining the number of viable cells in proliferation.
(§2) For the assay, suspension cells were cultured by triplicate at a density of 1×10^6 cells/ml in 96-well plates (100.000 cells/well, 100 μl/well), except for HepG2, Hep3B and PLC/PRF/5 cell lines which were cultured at a density of 3000 cells/well, 100 μl/well).
(§3) Adherent cells were obtained from 80-90% confluent flasks and 100 μl of cells were seeded at a density of 5000 cells/well in 96-well plates by triplicate. Before addition of the compounds, adherent cells were allowed to attach to the bottom of the wells for 12 hours. In all cases, only the 60 inner wells were used to avoid any border effects.
(§4) After 48 hours of treatment, plates with suspension cells were centrifuged at 800g for 10 minutes and medium was removed. The plates with adherent cells were flicked to remove medium. Then, cells were incubated with 100 μl/well of medium and 20 μl/well of CellTiter 96 Aqueous One Solution reagent. After 1-3 hours of incubation at 37° C., absorbance was measured at 490 nm in a 96-well plate reader. The background absorbance was measured in wells with only cell line medium and solution reagent. Data was calculated as a percentage of total absorbance of treated cell/absorbance of non treated cells.

The next experiment relates to Hep3B. Described as above. The settings on record: Homo sapiens, hepatocellular carcinoma cells, 48 hours of treatment. The class given is cell-based. The procedure:
as §1, §2, §3, §4

In the next experiment the test system is HepG2. The description is as above. The class given is cell-based. Conditions: Homo sapiens, hepatocellular carcinoma cells, 48 hours of treatment. The procedure: as §1, §2, §3, §4
In experiment [1] the test system is DNA methyltransferase (DNMT). Conditions: selectivity in a methyltransferase enzyme panel including one DNMT, according to the authors; cited from earlier work.
The subject of another experiment is PLC/PRF/5. Briefly: Cell proliferation assay (CellTiter 96 Aqueous One Solution). The class given is cell-based. Conditions: Homo sapiens, hepatocellular carcinoma cells, 48 hours of treatment. The protocol: as §1, §2, §3, §4

A word on the IC50: it is the concentration at which inhibition is half-maximal. Higher therefore signals lower potency. In general, GI50 refers to the concentration giving 50% growth inhibition.

T1 sequence (P26358 whole entry): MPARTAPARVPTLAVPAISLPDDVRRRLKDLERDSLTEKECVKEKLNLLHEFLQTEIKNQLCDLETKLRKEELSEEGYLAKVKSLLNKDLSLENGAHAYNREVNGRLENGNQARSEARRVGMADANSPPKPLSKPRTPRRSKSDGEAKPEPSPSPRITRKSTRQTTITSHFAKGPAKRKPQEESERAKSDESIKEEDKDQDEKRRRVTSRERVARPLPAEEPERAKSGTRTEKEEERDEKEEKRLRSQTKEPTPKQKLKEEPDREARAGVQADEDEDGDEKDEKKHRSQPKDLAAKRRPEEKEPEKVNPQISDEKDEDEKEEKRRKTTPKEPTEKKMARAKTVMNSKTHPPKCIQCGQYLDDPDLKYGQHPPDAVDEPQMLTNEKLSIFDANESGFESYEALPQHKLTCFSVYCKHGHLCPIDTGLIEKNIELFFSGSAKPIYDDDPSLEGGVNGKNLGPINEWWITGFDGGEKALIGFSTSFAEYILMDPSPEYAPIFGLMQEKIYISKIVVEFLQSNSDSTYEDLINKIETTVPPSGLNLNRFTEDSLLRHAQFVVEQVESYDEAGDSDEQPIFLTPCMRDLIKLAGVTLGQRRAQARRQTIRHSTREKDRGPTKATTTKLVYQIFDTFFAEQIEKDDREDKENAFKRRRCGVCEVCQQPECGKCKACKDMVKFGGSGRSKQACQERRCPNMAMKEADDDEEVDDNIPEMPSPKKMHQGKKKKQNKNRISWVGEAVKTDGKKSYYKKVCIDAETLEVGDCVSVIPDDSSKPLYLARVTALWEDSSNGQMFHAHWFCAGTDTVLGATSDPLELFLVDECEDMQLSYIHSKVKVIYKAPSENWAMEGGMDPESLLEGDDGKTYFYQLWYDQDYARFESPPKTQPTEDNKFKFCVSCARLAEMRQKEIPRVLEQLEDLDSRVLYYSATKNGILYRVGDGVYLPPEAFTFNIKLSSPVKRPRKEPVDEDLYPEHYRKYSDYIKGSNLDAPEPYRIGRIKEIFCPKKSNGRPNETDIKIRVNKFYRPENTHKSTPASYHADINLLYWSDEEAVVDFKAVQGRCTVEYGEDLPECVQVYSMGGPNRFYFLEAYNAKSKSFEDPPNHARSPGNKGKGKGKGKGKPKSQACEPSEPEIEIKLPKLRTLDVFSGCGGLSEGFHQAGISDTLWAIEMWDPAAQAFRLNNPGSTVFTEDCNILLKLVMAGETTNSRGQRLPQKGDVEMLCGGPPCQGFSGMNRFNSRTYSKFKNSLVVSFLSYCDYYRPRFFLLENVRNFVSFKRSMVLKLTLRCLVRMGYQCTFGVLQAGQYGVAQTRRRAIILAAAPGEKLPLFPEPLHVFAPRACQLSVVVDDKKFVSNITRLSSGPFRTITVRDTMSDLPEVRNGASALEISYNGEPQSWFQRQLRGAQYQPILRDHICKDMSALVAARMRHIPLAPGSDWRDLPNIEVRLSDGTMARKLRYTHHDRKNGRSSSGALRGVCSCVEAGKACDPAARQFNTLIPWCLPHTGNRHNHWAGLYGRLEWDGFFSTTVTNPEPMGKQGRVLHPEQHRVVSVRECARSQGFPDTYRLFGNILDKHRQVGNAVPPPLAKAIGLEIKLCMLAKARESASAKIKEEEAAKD

On to `CCc1ccc(-c2cc(N(C)CC3CCN(C)CC3)c3cc(OC)c(OCCCN4CCCC4)cc3n2)o1` [Compound 1-04], for which the IC50 against human DNMT1 was in the range of 0.1 to 0.5 µM; against human G9a enzyme, 0.5 to 1 µM. Further, the GI50 with CEMO-1, with Hep3B and with HepG2 was 0.1 to 1 µM in each case.

For `COc1cc2c(N(C)CC3CCN(C)CC3)cc(-c3ccc(C)o3)nc2cc1OCCCN1CCCC1` [Compound 1-03], the IC50 against human DNMT1 was in the range of 0.1 to 0.5 µM; at human G9a enzyme it was 1 to 10 µM. Also, the GI50 in the experiment with CEMO-1 was in the range of 1 to 10 µM; in the experiment on Hep3B, 0.1 to 1 µM; with HepG2, 0.1 to 1 µM.

As for `COc1cc2nc(N3CCN(C)CC3)cc(NC3CCN(Cc4ccccc4)CC3)c2cc1OC` [Compound 42], the “activity against the DNA methyltransferase” value in experiment [1] is “inactive”.

For the compound `COc1cc2c(OC3CCN(C)CC3)cc(-c3ccc(C)o3)nc2cc1OCCCN1CCCC1` [Compound 3-01, 6-methoxy-2-(5-methyl-2-furyl)-4-[(1-methyl-4-piperidyl)oxy]-7-(3-pyrrolidin-1-ylpropoxy)quinoline], the GI50 in the experiment on CEMO-1, with Hep3B, in the experiment on HepG2 and with PLC/PRF/5 was 1 to 10 µM each time.

In the case of `COc1cc2nc(N3CCCN(C)CC3)cc(NC3CCN(Cc4ccccc4)CC3)c2cc1OC` [Compound 41], the “activity against the DNA methyltransferase” value in experiment [1] was “inactive”.

Turning to `COc1cc2c(N(C)C3CCN(C)CC3)cc(-c3ccc(C)o3)nc2cc1OCCCN1CCCC1` [Compound 1-02], the figures for the GI50 in the experiment on CEMO-1, in the experiment with Hep3B and in the experiment with HepG2 were ≥ 10 µM, 1 to 10 µM and 1 to 10 µM, respectively.

Take `COc1cc2c(N(C)C3CC4(CCN(C(C)C)CC4)C3)cc(-c3ccc(C)o3)nc2cc1OC1CC2(C1)CN(CC#N)C2` (stereo not drawn) [Compound 1-15]: the results for the IC50 against human DNMT1 and at human G9a enzyme were 1 to 10 µM and > 10 µM, respectively.

Turning to `CNC1CCN(c2cc(-c3ccc(C)o3)nc3cc(OCCCN4CCCC4)c(OC)cc23)CC1` [Compound 2-01, 1-[6-methoxy-2-(5-methyl-2-furyl)-7-(3-pyrrolidin-1-ylpropoxy)-4-quinolyl]-N-methyl-piperidin-4-amine], the figures for the IC50 against human DNMT1 and against human G9a enzyme were 0.5 to 1 µM and 1 to 10 µM, respectively.

Consider `COc1cc2c(N(C)CC3CCNCC3)cc(-c3ccccc3)nc2cc1OCCCN1CCCC1` [Compound 1-23, 6-methoxy-N-methyl-2-phenyl-N-(4-piperidylmethyl)-7-(3-pyrrolidin-1-ylpropoxy)quinolin-4-amine], for which the IC50 was in the range of 0.5 to 1 µM against human DNMT1 and 0.1 to 0.5 µM against human G9a enzyme.

Take `COc1cc2c(N(C)C3CC4(CCN(C)CC4)C3)cc(-c3ccc(C)o3)nc2cc1OCC1CCN(C)CC1` [Compound 1-08, 6-methoxy-N-methyl-N-(7-methyl-7-azaspiro[3.5]nonan-2-yl)-2-(5-methyl-2-furyl)-7-[(1-methyl-4-piperidyl)methoxy]quinolin-4-amine]: the IC50 is 1 to 10 µM at human DNMT1 and > 10 µM against human G9a enzyme.

As to `COc1cc2c(N(C)C3CCC4(CC3)CN(C)C4)cc(-c3ccc(C)o3)nc2cc1OCCCN1CCCC1` [Compound 1-18], the IC50 at human DNMT1 and against human G9a enzyme was 1 to 10 µM throughout.

As to `CCc1ccc(-c2cc(N(C)CC3CCN(C)CC3)c3cc(OC)c(OCC4CCN(C)CC4)cc3n2)o1` [Compound 1-16], the IC50 at human DNMT1 is 1 to 10 µM; on human G9a enzyme, > 10 µM.

`COc1cc2c(N(C)C3CC4(CCN(C(C)C)CC4)C3)cc(-c3ccc(C)o3)nc2cc1OC1CC2(C1)CN(C)C2` (stereo not drawn) [Compound 1-14]: the IC50 against human DNMT1 is 1 to 10 µM; on human G9a enzyme, > 10 µM.

As for `COc1cc2c(OCC3CCN(C)CC3)cc(-c3ccc(C)o3)nc2cc1OCCCN1CCCC1` [Compound 3-02], the IC50 on human DNMT1 is 0.5 to 1 µM; against human G9a enzyme, 1 to 10 µM.

Take `CNC1CCN(c2cc(-c3ccc4occc4c3)nc3cc(OCCCN4CCCC4)c(OC)cc23)CC1` [Compound 2-04]: the IC50 is 1 to 10 µM against human DNMT1 and > 10 µM at human G9a enzyme.

Consider `COc1cc2c(C3CCN(C)CC3)cc(-c3ccc(C)o3)nc2cc1OCCCN1CCCC1` [Compound 4-02, 6-methoxy-2-(5-methyl-2-furyl)-4-(1-methyl-4-piperidyl)-7-(3-pyrrolidin-1-ylpropoxy)quinoline], for which the IC50 on human DNMT1 and on human G9a enzyme was 1 to 10 µM each time.

With `CCc1ccc(-c2cc(N(C)CC3CCN(C)CC3)c3cc(OC)c(OC4CC5(C4)CN(C)C5)cc3n2)o1` [Compound 1-10], the figures for the IC50 at human DNMT1 and against human G9a enzyme were 1 to 10 µM and > 10 µM, respectively.

For the compound `COc1cc2c(N(C)CC3CCN(C)CC3)cc(-c3ccc(C)[nH]3)nc2cc1OCCCN1CCCC1` [Compound 1-06], the IC50 on human DNMT1 and against human G9a enzyme was 0.1 to 0.5 µM throughout.

As for `COc1cc2c(N(C)C)cc(-c3ccc(C)o3)nc2cc1OCCCN1CCCC1` [Compound 1-12], the IC50 on human DNMT1 and against human G9a enzyme was 1 to 10 µM in each case.
